# In patent publication EP0322748B1, “Antibiotic NK86-0279, process for production of the same and application of the same” (NIPPON KAYAKU KABUSHIKI KAISHA, priority 1987, dated 1989):
# Tests used:
# [1] = system: mouse melanoma cells (B16); assay: growth-inhibitory effect on mouse melanoma cells, dye exclusion method; type: cell-based
# Procedure: The growth-inhibitory effects of the compound of the present invention on mouse melanoma cells (B16) and human melanoma cells (A375) were examined. A 96-well plate was inoculated with mouse melanoma cells at a ratio of 1.5 x 10³ cells per well, while another 96-well plate was inoculated with human melanoma cells at a ratio of 1.0 x 10³ per well. These cells were incubated in an incubator at 37°C under 5 % CO₂. Then the compound of the present invention was added thereto at various concentrations. Cells in each well were counted by the dye exclusion method 65 hours after the addition to thereby evaluate the growth-inhibitory effect of the test compound on the mouse melanoma cells and that on the human melanoma cells.
# [2] = system: mosquito culices (a sensitive species); assay: insecticidal action, mortality rate of mosquito larvae; type: in vivo
# Procedure: The insecticidal action of the compound of the present invention was examined by the following method. • (1) An imago of two-spotted spider mite acarids (a Kelthane-resistant species) was used as a test vermin, and the mortality rate thereof was assayed according to an ordinary method (described on page 327 of "Noyaku Seibutsu Kenteiho" edited by Toyoji Hosotsuji). Specifically, a solution of the compound of the present invention in acetone (0.1 %) was added to 0.5 ml of an aqueous sucrose solution (1 %) to have a predetermined concentration. Ten two-spotted spider mite acarids were released in a vessel (200-ml beaker), and the vessel was covered with a paraffin film. The agent solution prepared above was put on the paraffin film, and another praffin film was put thereon. The beaker was allowed to stand in a thermostatic chamber (20 ± 1°C) for a predetermined period of time, and the life and death of the test vermin was investigated. • (2) A larva of mosquito culices (a sensitive species) was used as a test vermin, and the mortality rate thereof was assayed according to an ordinary method (described on page 109 of "Noyaku Jikkenho I, Sacchuzaihen" published by Soft Science, Inc.). Specifically, 10 ml of well water was placed in a vessel (15-ml Schale), and 5 larvae of mosquito culices (the third stage) were released in the vessel. A solution of the compound of the present invention in acetone (0.1 %) was added thereto so as to have a predetermined concentration. The vessel was allowed to stand in a thermostatic chamber (26 ± 1°C) for a predetermined period of time, and the life and death of the test vermin was investigated.
# [3] = system: mouse malignant melanoma (B16 melanotic melanoma); assay: in-vivo test by intraperitoneal administration against mouse malignant melanoma, tumor volume; parameters: species or system BDF₁ mouse; conditions: 11 days after inoculation
# Description: The anti-cancer action of the compound of the present invention against mouse malignant melanoma (B16 melanotic melanoma) was examined. 4 x 10⁵ mouse malignant melanoma cells were inoculated into a subcutaneous portion of the right body side of a 8 week-old male BDF₁ mouse, and the compound of the present invention was intraperitoneally administered to the mouse in various concentrations every day from the next day of the inoculation once a day for 10 days. On the 11 days after the inoculation the minor axis and the major axis of the tumor were measured, and the volume of the tumor was determined by using the following equation: (minor axis)² x […] [formula] . Then, the percentage inhibition of proliferation of each tumor with respect to the compound of the present invention was determined from the ratio of the volume of the tumor on the groups of administration of the compound of the present invention relative to that on the control group.
# [4] = system: bovine adrenal capillary endothelial cells; assay: growth-inhibitory effect on endothelial cells, Coulter counter; type: cell-based; conditions: Bos taurus, Endothelial cell, 72 h, three days after the addition
# Procedure: The growth-inhibitory effect of the compound of the present invention on endothelial cells was examined. A 96-well plate was inoculated with bovine adrenal capillary endothelial cells at a ratio of 1 x 10⁴ cells per well. One day after the inoculation, the compound of the present invention was added thereto at various concentrations. Cells in each well were counted with a Coulter counter three days after the addition to thereby evaluate the growth-inhibitory effect of the test compound on the capillary endothelial cells. […] Thus the IC₅₀ of the compound of the present invention on the endothelial cells was 0.0003 µg/ml, showing a strong growth-inhibitory effect.
# acute toxicity = conditions: mouse, in vivo, ip; mice
# [5] = system: mouse malignant melanoma (B16 melanotic melanoma); assay: in-vivo test by intravenous administration against mouse malignant melanoma, tumor volume; parameters: species or system C57BL/6 mouse
# Description: The anti-cancer action of the compound of the present invention against mouse malignant melanoma (B16 melanotic melanoma) was examined. 5 x 10⁵ mouse malignant melanoma cells were inoculated into a subcutaneous portion of the right body side of a 6 week-old male C57BL/6 mouse, and the compound of the present invention was intravenously administered to the mouse in various concentrations every day from the next day or from 7 days after the inoculation once a day for 5 days. On the 11 days after the inoculation, the minor axis and the major axis of the tumor were measured, and the volume of the tumor was determined by using the following equation: (minor axis)² x […]/2 [formula] . Then, the percentage inhibition of proliferation of each tumor with respect to the compound of the present invention was determined from the ratio of the volume of the tumor on the groups of administration of the compound of the present invention relative to that on the control group.
smiles,measurement,setting,value
CCC1C=CC=CCC(C)C(O)C(C)(O)C(=O)C(C)C(O)C(C)C(=O)C(C)C(O)C(C)C=CC(=O)OC2C(C)C(CC1)OC1(OC(CC(C)O)C(C)CC1=O)C2CC (centres unmarked) [NK86-0279],inhibition at 0.0061 µg/mL,"[1]; Mus musculus, 65 h, B16, 0.0061 µg/ml, read-out: Growth-inhibitory ratio",5.3%
same,inhibition at 0.024 µg/mL,"[1]; Mus musculus, 65 h, B16, 0.024 µg/ml, read-out: Growth-inhibitory ratio",36.8%
same,inhibition at 0.098 µg/mL,"[1]; Mus musculus, 65 h, B16, 0.098 µg/ml, read-out: Growth-inhibitory ratio",43.1%
same,inhibition at 0.39 µg/mL,"[1]; Mus musculus, 65 h, B16, 0.39 µg/ml, read-out: Growth-inhibitory ratio",45.3%
same,inhibition at 1.56 µg/mL,"[1]; Mus musculus, 65 h, B16, 1.56 µg/ml, read-out: Growth-inhibitory ratio",48.9%
same,inhibition at 6.25 µg/mL,"[1]; Mus musculus, 65 h, B16, 6.25 µg/ml, read-out: Growth-inhibitory ratio",89.7%
same,inhibition at 25 µg/mL,"[1]; Mus musculus, 65 h, B16, 25 µg/ml, read-out: Growth-inhibitory ratio",105%
same,inhibition at 100 µg/mL,"[1]; Mus musculus, 65 h, B16, 100 µg/ml, read-out: Growth-inhibitory ratio",105%
same,IC50,"[1]; mouse melanoma cells (B16), 65 hours after the addition, read-out: IC₅₀",1.62 µg/mL
same,mortality at 1 ppm,"[2]; 48 h, after 2 days",0%
same,mortality at 10 ppm,"[2]; 48 h, after 2 days",100%
same,mortality at 1 ppm,"[2]; 144 h, 6 days",0%
same,mortality at 10 ppm,"[2]; 144 h, 6 days",100%
same,mortality at 1 ppm,"[2]; 216 h, 9 days",0%
same,mortality at 10 ppm,"[2]; 216 h, 9 days",100%
same,Growth-inhibitory ratio (tumor volume),[3]; 0.012 mg/kg intraperitoneally once a day for 10 days,50.7%
same,Growth-inhibitory ratio (tumor volume),[3]; 0.021 mg/kg intraperitoneally once a day for 10 days,19.3%
same,Growth-inhibitory ratio (tumor volume),[3]; 0.037 mg/kg intraperitoneally once a day for 10 days,41.4%
same,Growth-inhibitory ratio (tumor volume),[3]; 0.064 mg/kg intraperitoneally once a day for 10 days,40.5%
same,Growth-inhibitory ratio (tumor volume),[3]; 0.111 mg/kg intraperitoneally once a day for 10 days,38.4%
same,Growth-inhibitory ratio (tumor volume),[3]; 0.192 mg/kg intraperitoneally once a day for 10 days,54.7%
same,Growth-inhibitory ratio (tumor volume),[3]; 0.333 mg/kg intraperitoneally once a day for 10 days,53.2%
same,Growth-inhibitory ratio (tumor volume),[3]; 0.577 mg/kg intraperitoneally once a day for 10 days,60.4%
same,Growth-inhibitory ratio (tumor volume),[3]; 1.000 mg/kg intraperitoneally once a day for 10 days,80%
same,inhibition at 0.000128 µg/mL,"[4]; 0.000128 µg/ml, read-out: Groth-inhibitory ratio",35.4%
same,inhibition at 0.00064 µg/mL,"[4]; 0.00064 µg/ml, read-out: Groth-inhibitory ratio",63.2%
same,inhibition at 0.0032 µg/mL,"[4]; 0.0032 µg/ml, read-out: Groth-inhibitory ratio",78.4%
same,inhibition at 0.016 µg/mL,"[4]; 0.016 µg/ml, read-out: Groth-inhibitory ratio",89.7%
same,IC50,"[4]; endothelial cells, read-out: IC₅₀",0.0003 µg/mL
same,LD50,acute toxicity,1.67 mg/kg
same,Growth-inhibitory ratio (tumor volume),"[5]; 0.05 mg/kg intravenously once a day for 5 days, administered from 7 days after the inoculation",57.4%
same,Growth-inhibitory ratio (tumor volume),"[5]; 0.05 mg/kg intravenously once a day for 5 days, administered from the next day of the inoculation",57.0%
same,Growth-inhibitory ratio (tumor volume),"[5]; 0.10 mg/kg intravenously once a day for 5 days, administered from 7 days after the inoculation",69.1%
same,Growth-inhibitory ratio (tumor volume),"[5]; 0.10 mg/kg intravenously once a day for 5 days, administered from the next day of the inoculation",62.9%
same,Growth-inhibitory ratio (tumor volume),"[5]; 0.20 mg/kg intravenously once a day for 5 days, administered from 7 days after the inoculation",76.6%
same,Growth-inhibitory ratio (tumor volume),"[5]; 0.20 mg/kg intravenously once a day for 5 days, administered from the next day of the inoculation",56.9%
same,Growth-inhibitory ratio (tumor volume),"[5]; 0.40 mg/kg intravenously once a day for 5 days, administered from 7 days after the inoculation",81.9%
same,Growth-inhibitory ratio (tumor volume),"[5]; 0.40 mg/kg intravenously once a day for 5 days, administered from the next day of the inoculation",50.5%
